Test results as given in US20250122171A1, “Substituted Amine Compounds, Compositions and Methods of Use” (Deep Apple Therapeutics, Inc., priority 2023, published 2025).

What follows are compounds tested against T1, human MRGPRX2 (Homo sapiens, UniProt Q96LB1) (assay: MRGPRX2 Activity Assay (IP-1 HTRF, antagonist mode)). Conditions: FlpIn TRex-MRGPRX2-HEK293 cells; versus 1 μM Cortistatin-14 agonist; 30 minutes preincubation.
T1 construct: expressed in transfected cells; host or cells: FlpIn TRex HEK293 (TRex-MRGPRX2-HEK), doxycycline-induced
T1 sequence (Q96LB1 1-330): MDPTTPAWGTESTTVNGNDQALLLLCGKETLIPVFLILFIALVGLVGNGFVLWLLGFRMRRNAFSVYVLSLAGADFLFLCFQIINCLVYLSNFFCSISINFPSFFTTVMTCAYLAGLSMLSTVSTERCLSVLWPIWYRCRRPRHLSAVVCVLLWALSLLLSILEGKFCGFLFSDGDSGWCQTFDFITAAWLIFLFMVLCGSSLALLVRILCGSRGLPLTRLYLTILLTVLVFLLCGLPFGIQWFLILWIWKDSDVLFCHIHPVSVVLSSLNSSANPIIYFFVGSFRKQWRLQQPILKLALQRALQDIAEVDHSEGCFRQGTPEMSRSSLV
Format: cell-based
Protocol: FlpIn TRex-MRGPRX2-HEK293 cells (herein TRex-MRPGRX2-HEK) stably transfected to express human MRGPRX2 were maintained at 37° C. with 5% CO2 and grown in DMEM supplemented with 10% FBS, 1% L-Glutamate, 1% penicillin/streptomycin, 100 ug/mL Hygromycin B, and 15 ug/mL Blasticidin.
GOI (MRGPRX2) expression was induced with 100 ng/mL of Doxycycline 18-24 hours prior to experiment, in flask. On the day of experiment, cells were lifted with TripLE Express and seeded in 384-well white walled opaque bottomed, assay plates, at 8,000 cells per well in 5 uL freshly made assay buffer (HBSS, 20 mM HEPES, 0.1% BSA and 10 mM LiCl). Compounds solubilized in 100% DMSO at 30 mM were serially diluted (1:4) first in 100% DMSO, and an intermediate plate of assay buffer was used to establish a final top concentration of 30 uM (in assay plate). Final DMSO concentration was kept constant at 1% across assay plates. […], at 30 mM stock concentration was solubilized in HBSS+0.1% BSA, stored at −20° C. in 5 μL aliquots and discarded after one freeze-thaw cycle. […].
Antagonist equilibrium was established with 30 minutes preincubation, followed by no wash, direct addition, and stimulation of agonist for 1 hour at 37° C./5% CO2. IP-1 standards and HTRF detection reagents were added according to the IP-one Gq kit protocol purchased from CisBio (part number 62IPAPEJ). The plate was read on an EnVision XCite plate reader. The HTRF ratio was then calculated from raw data (channel1/channel2×10,000) and analyzed using either GraphPad Prism or a custom Python script to calculate IC50 using Log[Antagonist] vs. response (4 parameter) nonlinear regression.
An IC50 of 2950 nM was found for `C[C@H](C(=O)Nc1cn(Cc2ccc(F)cc2F)cn1)N1CCC(F)(F)[C@@H](c2cc[n+]([O-])cc2)C1` (single isomer, unassigned) [Compound 2] in this work.
`C[C@@H](C(=O)Nc1cn(Cc2ccc(F)cc2F)cn1)N1CCC(F)(F)[C@H](c2cc[n+]([O-])cc2)C1` (single isomer, unassigned) [Compound 3] was tested, and the IC50 was > 10000 nM.
`C[C@H](C(=O)Nc1cn(Cc2ccc(F)cc2F)cn1)N1CCC(F)(F)[C@H](c2cc[n+]([O-])cc2)C1` (single isomer, unassigned) [Compound 4] was tested, and the IC50 was > 10000 nM.
An IC50 of 1780 nM was found for `C[C@@H](C(=O)Nc1cn(Cc2cc(F)cc(F)c2)cn1)N1CCC(F)(F)[C@@H](c2cc[n+]([O-])cc2)C1` (single isomer, unassigned) [Compound 6] in this work.
An IC50 of 9290 nM was found for `C[C@H](C(=O)Nc1cn(Cc2ccc(F)cc2F)c(C(F)(F)F)n1)N1CCC(F)(F)[C@@H](c2cc[n+]([O-])cc2)C1` (single isomer, unassigned) [Compound 8] in this work.
An IC50 of 1610 nM was found for `Cc1nc(NC(=O)[C@@H](C)N2CCC(F)(F)[C@@H](c3cc[n+]([O-])cc3)C2)cn1Cc1ccc(F)cc1F` (single isomer, unassigned) [Compound 10] in this work.
An IC50 of 196 nM was found for `C[C@@H](C(=O)Nc1nc2cc3c(cc2s1)OCO3)N1CCC(F)(F)[C@@H](c2cc[n+]([O-])cc2)C1` (single isomer, unassigned) [Compound 12] in this work.
An IC50 of 233 nM was found for `C[C@H](C(=O)Nc1cn([C@@H](C)c2cc(F)cc(F)c2)cn1)N1CCC(F)(F)[C@@H](c2cc[n+]([O-])cc2)C1` (single isomer, unassigned) [Compound 13] in this work.
An IC50 of 465 nM was found for `C[C@H](c1cc(F)cc(F)c1)n1cnc(NC(=O)[C@H](C)N2CCC(F)(F)[C@@H](c3cc[n+]([O-])cc3)C2)c1` (single isomer, unassigned) [Compound 14] in this work.
With `C[C@@H](C(=O)Nc1cn([C@@H](C)c2cc(F)cc(F)c2)cn1)N1CCC(F)(F)[C@@H](c2cc[n+]([O-])cc2)C1` (single isomer, unassigned) [Compound 15] the IC50 was > 10000 nM.
In the case of `C[C@H](C(=O)Nc1cn([C@H](C)c2cc(F)cc(F)c2)cn1)N1CCC(F)(F)[C@@H](c2cc[n+]([O-])cc2)C1` (single isomer, unassigned) [Compound 16], the IC50 is reported as > 10000 nM.
An IC50 of 125 nM was found for `Cc1nc(NC(=O)[C@H](C)N2CCC(F)(F)[C@@H](c3cc[n+]([O-])cc3)C2)cn1Cc1cc(F)cc(C#N)c1` (single isomer, unassigned) [Compound 17] in this work.
`Cc1nc(NC(=O)[C@@H](C)N2CCC(F)(F)[C@@H](c3cc[n+]([O-])cc3)C2)cn1Cc1cc(F)cc(C#N)c1` (single isomer, unassigned) [Compound 18] was tested, and the IC50 was > 10000 nM.
An IC50 of 193 nM was found for `Cc1nc(NC(=O)[C@@H](C)N2CCC(F)(F)[C@@H](c3cc[n+]([O-])cc3)C2)cn1Cc1cc(F)cc(F)c1` (single isomer, unassigned) [Compound 20] in this work.
An IC50 of 124 nM was found for `Cc1nc(NC(=O)[C@@H](C)N2CCC(F)(F)CC2)cn1Cc1cc(F)cc(F)c1` (single isomer, unassigned) [Compound 22] in this work.
An IC50 of 700 nM was found for `Cc1nc(NC(=O)[C@H](C)N2CCOCC2)cn1Cc1cc(F)cc(F)c1` (single isomer, unassigned) [Compound 23] in this work.
An IC50 of 3910 nM was found for `Cc1nc(NC(=O)[C@@H](C)N2CCOCC2)cn1Cc1cc(F)cc(F)c1` (single isomer, unassigned) [Compound 24] in this work.
With `C[C@@H](C(=O)Nc1cn(Cc2cc(F)cc(F)c2)c(C(F)(F)F)n1)N1CCC(F)(F)[C@@H](c2cc[n+]([O-])cc2)C1` (single isomer, unassigned) [Compound 25] the IC50 was > 10000 nM.
An IC50 of 587 nM was found for `C[C@@H](C(=O)Nc1coc(Cc2cc(F)cc(F)c2)n1)N1CCC(F)(F)[C@@H](c2cc[n+]([O-])cc2)C1` (single isomer, unassigned) [Compound 27] in this work.
An IC50 of 432 nM was found for `C[C@@H](C(=O)Nc1cn(Cc2cc(F)cc(F)c2)cn1)N1CCC(F)(F)[C@@H](c2ccc(=O)[nH]c2)C1` (single isomer, unassigned) [Compound 54] in this work.
For `C[C@H](C(=O)Nc1noc(Cc2cc(F)cc(F)c2)n1)N1CCC(F)(F)[C@@H](c2cc[n+]([O-])cc2)C1` (single isomer, unassigned) [Compound 57], the IC50 was > 10000 nM.
In the case of `C[C@@H](C(=O)Nc1nc(Cc2cc(F)cc(F)c2)no1)N1CCC(F)(F)[C@@H](c2cc[n+]([O-])cc2)C1` (single isomer, unassigned) [Compound 58], the IC50 is reported as > 10000 nM.
An IC50 of 432 nM was found for `C[C@H](C(=O)Nc1nc(Cc2cc(F)cc(F)c2)no1)N1CCC(F)(F)[C@@H](c2cc[n+]([O-])cc2)C1` (single isomer, unassigned) [Compound 59] in this work.
In the case of `C[C@@H](C(=O)Nc1cn(Cc2cc(F)cc(F)c2)c(CF)n1)N1CCC(F)(F)[C@@H](c2cc[n+]([O-])cc2)C1` (single isomer, unassigned) [Compound 60], the IC50 is reported as > 30000 nM.
An IC50 of 477 nM was found for `C[C@H](C(=O)Nc1cn(Cc2cc(F)cc(F)c2)c(CF)n1)N1CCC(F)(F)[C@@H](c2cc[n+]([O-])cc2)C1` (single isomer, unassigned) [Compound 61] in this work.
An IC50 of 4330 nM was found for `C[C@@H](C(=O)Nc1cn(Cc2cc(F)cc(F)c2)cn1)N1CCC(F)(F)[C@@H](c2ccc(=O)n(C)c2)C1` (single isomer, unassigned) [Compound 67] in this work.
`C[C@@H](C(=O)Nc1cn(Cc2cc(F)cc(F)c2)cn1)N1CCC(F)(F)[C@H](c2ccc(=O)n(C)c2)C1` (single isomer, unassigned) [Compound 69] was tested, and the IC50 was > 30000 nM.
In the case of `C[C@H](C(=O)Nc1cn(Cc2cc(F)cc(F)c2)cn1)N1CCC(F)(F)[C@H](c2ccc(=O)n(C)c2)C1` (single isomer, unassigned) [Compound 70], the IC50 is reported as > 30000 nM.
An IC50 of 2360 nM was found for `C[C@@H](C(=O)Nc1cn(Cc2cc(F)cc(F)c2)cn1)N1CCC(F)(F)[C@@H](c2c[nH]c(=O)c(CO)c2)C1` (single isomer, unassigned) [Compound 71] in this work.
An IC50 of 8560 nM was found for `C[C@@H](C(=O)Nc1cn(Cc2cc(F)cc(F)c2)cn1)N1CCC(F)(F)[C@H](c2c[nH]c(=O)c(CO)c2)C1` (single isomer, unassigned) [Compound 73] in this work.
In the case of `C[C@H](C(=O)Nc1cn(Cc2cc(F)cc(F)c2)cn1)N1CCC(F)(F)[C@H](c2c[nH]c(=O)c(CO)c2)C1` (single isomer, unassigned) [Compound 74], the IC50 is reported as > 30000 nM.
With `C[C@H](C(=O)Nc1cn(Cc2cc(F)cc(F)c2)c(Cl)n1)N1CCC(F)(F)[C@@H](c2cc[n+]([O-])cc2)C1` (single isomer, unassigned) [Compound 81] the IC50 was > 30000 nM.
An IC50 of 1170 nM was found for `C[C@@H](C(=O)Nc1cn(Cc2cc(F)cc(F)c2)c(C(F)F)n1)N1CCC(F)(F)[C@@H](c2cc[n+]([O-])cc2)C1` (single isomer, unassigned) [Compound 82] in this work.
An IC50 of 12700 nM was found for `C[C@@H](C(=O)Nc1nc2ccccc2s1)N1CCC(F)(F)[C@@H](c2cc[n+]([O-])cc2)C1` (single isomer, unassigned) [Compound 84] in this work.
An IC50 of 1180 nM was found for `C[C@H](C(=O)Nc1cn2c(n1)CC[C@H]2c1cc(F)cc(F)c1)N1CCC(F)(F)[C@@H](c2cc[n+]([O-])cc2)C1` (single isomer, unassigned) [Compound 486] in this work.
An IC50 of 13800 nM was found for `C[C@@H](C(=O)Nc1cn2c(n1)CC[C@H]2c1cc(F)cc(F)c1)N1CCC(F)(F)[C@@H](c2cc[n+]([O-])cc2)C1` (single isomer, unassigned) [Compound 487] in this work.
An IC50 of 8810 nM was found for `C[C@H](C(=O)Nc1cn2c(n1)CC[C@@H]2c1cc(F)cc(F)c1)N1CCC(F)(F)[C@@H](c2cc[n+]([O-])cc2)C1` (single isomer, unassigned) [Compound 488] in this work.
An IC50 of 1640 nM was found for `C[C@@H](C(=O)Nc1cn(Cc2cc(F)cc(F)c2)c(C(F)F)n1)N1CCC(F)(F)[C@H](c2c[nH]c(=O)c(CO)c2)C1` (single isomer, unassigned) [Compound 491] in this work.
`C[C@@H](C(=O)Nc1cn2c(n1)CC[C@@H]2c1cc(F)cc(F)c1)N1CCC(F)(F)[C@H](c2ccc(=O)[nH]c2)C1` (single isomer, unassigned) [Compound 495] was tested, and the IC50 was > 30000 nM.
An IC50 of 3470 nM was found for `C[C@@H](C(=O)Nc1cn2c(n1)CC[C@H]2c1cc(F)cc(F)c1)N1CCC(F)(F)[C@H](c2ccc(=O)[nH]c2)C1` (single isomer, unassigned) [Compound 496] in this work.
With `C[C@@H](C(=O)Nc1cn2c(n1)CC[C@@H]2c1cc(F)cc(F)c1)N1CCCCC1` (single isomer, unassigned) [Compound 497] the IC50 was > 30000 nM.
